Results: ChEMBL document CHEMBL2021805, “Structural polymorphism of human telomere G-quadruplex induced by a pyridyl carboxamide molecule” (Bioorg Med Chem Lett, 2012)
The source made the active and inactive calls. The rule behind the calls is not given here.

Key:
Format in all cases: nucleic-acid assay
Nucleic Acid [1] = assay: Stabilization of human hybrid-type G-quadruplex G4A in 100 mM Na+ solution at room temperature assessed as formation of anti-parallel structure at 60 uM by CD spectroscopy
Nucleic Acid [2] = assay: Binding affinity to human G-quadruplex FAM-21G at 20 uM by native PAGE analysis
Nucleic Acid [3] = assay: Stabilization of human G-quadruplex G4A in 100 mM K+ solution assessed as formation of stable parallel structure measuring transformation rate constant at 60 uM after 1 day at 37 degC by CD spectroscopy
Nucleic Acid [4] = assay: Stabilization of human G-quadruplex G4A in 100 mM K+ solution assessed as time required to the formation of stable parallel structure at 60 uM at 37 degC by CD spectroscopy
Nucleic Acid [5] = assay: Stabilization of human G-quadruplex G4A in 100 mM K+ solution assessed as time required to the formation of stable snti-parallel quadruplex structure at 60 uM at 37 degC by CD spectroscopy
Nucleic Acid [6] = assay: Stabilization of human hybrid-type G-quadruplex G4A in 100 mM K+ solution at room temperature assessed as formation of anti-parallel structure at 60 uM by CD spectroscopy
Nucleic Acid [7] = assay: Stabilization of human G-quadruplex G4A in 100 mM K+ solution assessed as formation of stable parallel structure at 60 uM after heating at 95 degC and cooling to room temperature by CD spectroscopy
Nucleic Acid [8] = assay: Stabilization of human G-quadruplex G4A in 100 mM K+ solution assessed as formation of stable parallel structure at 60 uM after 1 day at 37 degC by CD spectroscopy
Nucleic Acid [9] = assay: Binding affinity to human G-quadruplex FAM-21G at 10 uM after 2 to 24 hrs by native PAGE analysis
Nucleic Acid [10] = assay: Binding affinity to human G-quadruplex Ap-6 substituted 21G assessed as fluorescence quenching using ascorbic acid at 5 uM up to 1 hr by fluorescence analysis
Nucleic Acid [11] = assay: Binding affinity to human G-quadruplex Ap-12 substituted 21G assessed as fluorescence quenching using ascorbic acid at 5 uM up to 1 hr by fluorescence analysis
Nucleic Acid [12] = assay: Binding affinity to human G-quadruplex Ap-18 substituted 21G assessed as fluorescence quenching using ascorbic acid at 5 uM up to 1 hr by fluorescence analysis
Nucleic Acid [13] = assay: Binding affinity to human G-quadruplex Ap-6 substituted 21G at 5 uM up to 1 hr by fluorescence analysis
Nucleic Acid [14] = assay: Binding affinity to human G-quadruplex Ap-12 substituted 21G at 5 uM up to 1 hr by fluorescence analysis
Nucleic Acid [15] = assay: Binding affinity to human G-quadruplex Ap-18 substituted 21G at 5 uM up to 1 hr by fluorescence analysis

## C[N+]1(CC(=O)Nc2cccc(NC(=O)c3cccc(C(=O)Nc4cccc(NC(=O)C[N+]5(C)CCCCC5)n4)n3)n2)CCCCC1
Nucleic Acid [1]
  Activity: inactive
Nucleic Acid [2]
  Activity: Active
Nucleic Acid [3]
  Activity: 6.2 ×10⁻⁵ /s
Nucleic Acid [4]
  TIME: 20 h
Nucleic Acid [5]
  TIME: 3 h
Nucleic Acid [6]
  Activity: Active
Nucleic Acid [7]
  Activity: Active
Nucleic Acid [8]
  Activity: 99%
Nucleic Acid [9]
  Activity: Active
Nucleic Acid [10]
  Activity: Active
Nucleic Acid [11]
  Activity: Active
Nucleic Acid [12]
  Activity: Active
Nucleic Acid [13]
  Activity: Active
Nucleic Acid [14]
  Activity: Active
Nucleic Acid [15]
  Activity: Active
